PubChem BioAssay (NCI)
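48-hour exposure; five concentrations; linearly interpolated endpoints. At the GI50, growth is halved. TGI: total growth inhibition.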 Calls of active or inactive are those of the source. Cut-off read from the data, not from the text of the source: active = GI50 below about 0.43 µM; inactive = the rest.

How the values were obtained:
Assay in all cases: growth of human tumour cells (NCI), 48 h
UACC-62 melanoma = system: UACC-62 melanoma
OVCAR-3 ovarian = system: OVCAR-3 ovarian
MCF7 breast = system: MCF7 breast
MALME-3M melanoma = system: MALME-3M melanoma
HCC-2998 colon = system: HCC-2998 colon
K-562 leukemia = system: K-562 leukemia
NCI/ADR-RES ovarian = system: NCI/ADR-RES ovarian
MDA-MB-231 breast = system: MDA-MB-231 breast
OVCAR-4 ovarian = system: OVCAR-4 ovarian
M14 melanoma = system: M14 melanoma
CCRF-CEM leukemia = system: CCRF-CEM leukemia
U251 CNS = system: U251 CNS
OVCAR-5 ovarian = system: OVCAR-5 ovarian
SNB-75 CNS = system: SNB-75 CNS
RPMI-8226 leukemia = system: RPMI-8226 leukemia
UACC-257 melanoma = system: UACC-257 melanoma
HCT-116 colon = system: HCT-116 colon
SF-268 CNS = system: SF-268 CNS
MDA-MB-435 = system: MDA-MB-435
786-0 renal = system: 786-0 renal
NCI-H460 lung = system: NCI-H460 lung
HOP-62 NSCLC = system: HOP-62 NSCLC
SK-MEL-5 melanoma = system: SK-MEL-5 melanoma
A549 NSCLC = system: A549 NSCLC
UO-31 renal = system: UO-31 renal
HT29 colon = system: HT29 colon
SNB-19 CNS = system: SNB-19 CNS
SF-539 CNS = system: SF-539 CNS
TK-10 renal = system: TK-10 renal
SR leukemia = system: SR leukemia
DU-145 prostate = system: DU-145 prostate
MOLT-4 leukemia = system: MOLT-4 leukemia
ACHN renal = system: ACHN renal
A498 renal = system: A498 renal
BT-549 breast = system: BT-549 breast
RXF 393 renal = system: RXF 393 renal
IGROV1 ovarian = system: IGROV1 ovarian
EKVX NSCLC = system: EKVX NSCLC
HCT-15 colon = system: HCT-15 colon
NCI-H23 lung = system: NCI-H23 lung
SK-OV-3 ovarian = system: SK-OV-3 ovarian
OVCAR-8 ovarian = system: OVCAR-8 ovarian
SW-620 colon = system: SW-620 colon
CAKI-1 renal = system: CAKI-1 renal
KM12 colon = system: KM12 colon
SN12C renal = system: SN12C renal
PC-3 prostate = system: PC-3 prostate
COLO 205 colon = system: COLO 205 colon
SK-MEL-28 melanoma = system: SK-MEL-28 melanoma
HOP-92 NSCLC = system: HOP-92 NSCLC
T-47D breast = system: T-47D breast
HL-60(TB) leukemia = system: HL-60(TB) leukemia
SF-295 CNS = system: SF-295 CNS

Work on CCOP(=O)(C/C=C\Cn1cnc(C(N)=O)c1N)OCC yielded a GI50 (UACC-62 melanoma) of 25700 nM and a TGI (UACC-62 melanoma) of 75800 nM.

In the case of COc1cccc2c1/c(=C/c1ccc(N(C)C)cc1)c1cc(-c3ccccc3)[n+](C)n12, the TGI (OVCAR-3 ovarian) is reported as 1500 nM, the TGI (MCF7 breast) is reported as 1290 nM and the TGI (MALME-3M melanoma) is reported as 684 nM. For the same compound, the TGI (HCC-2998 colon) was 1080 nM, the TGI (K-562 leukemia) was 1390 nM and the TGI (NCI/ADR-RES ovarian) was > 100000 nM. For the same compound, the TGI (MDA-MB-231 breast) was 2200 nM, the TGI (OVCAR-4 ovarian) was 3160 nM and the TGI (M14 melanoma) was 1080 nM. For the same compound, the TGI (CCRF-CEM leukemia) was 1450 nM, the TGI (U251 CNS) was 1320 nM and the TGI (OVCAR-5 ovarian) was 1660 nM. For the same compound, the TGI (SNB-75 CNS) was 997 nM, the TGI (RPMI-8226 leukemia) was 1270 nM and the TGI (UACC-257 melanoma) was 692 nM. It also gave a TGI (HCT-116 colon) of 765 nM, a TGI (SF-268 CNS) of 1370 nM and a TGI (MDA-MB-435) of 1650 nM. It also gave a TGI (786-0 renal) of 1100 nM, a TGI (NCI-H460 lung) of 949 nM and a TGI (HOP-62 NSCLC) of 2080 nM. The TGI (SK-MEL-5 melanoma) was 312 nM, the TGI (A549 NSCLC) was 2500 nM and the TGI (UO-31 renal) was 802 nM. It also gave a TGI (HT29 colon) of 129 nM, a TGI (SNB-19 CNS) of 1720 nM and a TGI (SF-539 CNS) of 14900 nM. It also gave a TGI (TK-10 renal) of 1030 nM, a TGI (SR leukemia) of 899 nM and a TGI (DU-145 prostate) of 1750 nM. For the same compound, the TGI (MOLT-4 leukemia) was 623 nM, the TGI (ACHN renal) was 800 nM and the TGI (A498 renal) was 1300 nM. It also gave a TGI (BT-549 breast) of 774 nM and a TGI (RXF 393 renal) of 1940 nM.

With O=c1[nH]c(C2CCCCC2)nc2c(Cl)cccc12 the outcome (RPMI-8226 leukemia) was “inactive”, the outcome (SR leukemia) was “inactive” and the outcome (MOLT-4 leukemia) was “inactive”.

In the case of CC(=O)N1C(NN(C)C)CCN1c1ccccc1 (stereo unspecified), the TGI (MCF7 breast) is reported as > 10000 nM, the TGI (IGROV1 ovarian) is reported as > 10000 nM and the TGI (EKVX NSCLC) is reported as > 10000 nM. The TGI (MALME-3M melanoma) was > 10000 nM, the TGI (HCC-2998 colon) was > 10000 nM and the TGI (K-562 leukemia) was > 10000 nM. For the same compound, the TGI (MDA-MB-231 breast) was > 10000 nM, the TGI (OVCAR-4 ovarian) was > 10000 nM and the TGI (M14 melanoma) was > 10000 nM. For the same compound, the TGI (CCRF-CEM leukemia) was > 10000 nM, the TGI (HCT-15 colon) was > 10000 nM and the TGI (SNB-75 CNS) was > 10000 nM. The TGI (RPMI-8226 leukemia) was > 10000 nM, the TGI (NCI-H23 lung) was > 10000 nM and the TGI (SK-OV-3 ovarian) was > 10000 nM. For the same compound, the TGI (UACC-257 melanoma) was > 10000 nM, the TGI (SF-268 CNS) was > 10000 nM and the TGI (OVCAR-8 ovarian) was > 10000 nM. The TGI (SW-620 colon) was > 10000 nM, the TGI (MDA-MB-435) was > 10000 nM and the TGI (CAKI-1 renal) was > 10000 nM. For the same compound, the TGI (KM12 colon) was > 10000 nM, the TGI (UACC-62 melanoma) was > 10000 nM and the TGI (786-0 renal) was > 10000 nM. The TGI (SN12C renal) was > 10000 nM, the TGI (PC-3 prostate) was > 10000 nM and the TGI (COLO 205 colon) was > 10000 nM. For the same compound, the TGI (SK-MEL-28 melanoma) was > 10000 nM, the TGI (HOP-62 NSCLC) was > 10000 nM and the TGI (SK-MEL-5 melanoma) was > 10000 nM. For the same compound, the TGI (A549 NSCLC) was > 10000 nM, the TGI (HOP-92 NSCLC) was > 10000 nM and the TGI (T-47D breast) was > 10000 nM. The TGI (HT29 colon) was > 10000 nM, the TGI (TK-10 renal) was > 10000 nM and the TGI (SR leukemia) was > 10000 nM. The TGI (DU-145 prostate) was > 10000 nM, the TGI (MOLT-4 leukemia) was > 10000 nM and the TGI (HL-60(TB) leukemia) was > 10000 nM. The TGI (RXF 393 renal) was > 10000 nM and the TGI (SF-295 CNS) was > 10000 nM.
